Results as given in PMC4311625, “Structural determinants for binding to angiotensin converting enzyme 2 (ACE2) and angiotensin receptors 1 and 2” (Frontiers in Pharmacology, 2015).
Read-outs that look alike come from different tables or passages of the source. Peptide text beside a SMILES is read from it.

Target: ACE2 (Homo sapiens, UniProt Q9BYF1)
Assay: ACE2 quenched fluorescence substrate (QFS) inhibition assay
Type: biochemical
Protocol: Angiotensin converting enzyme 2 QFS assays were performed for 1 h in 50 uM QFS, 1 M NaCl, 100 mM Tris-Cl, pH 6.5 at 37∘C on a BMG LabTechnologies (Offenburg, Germany), FLUOStar Optima in a 96 well-plate. Subsequent data analysis determined the inhibition of native AngII, its analogs and C-terminal peptides compared to the ACE2 QFS substrate [MCA-APK(DNP)-OH, [Vickers et al., 2002]]. […] Three controls were included in each ACE2 QFS assay; AngII (100 and 10 μM), IHPF (100 μM) and a known ACE2 inhibitor (1 nM; Millennium Pharmaceuticals, Cambridge, MA, USA). QFS assay results were accepted when ACE2 inhibition by AngII (10 μM) was 80 ± 5%, IHPF was 65 ± –5% and the ([Qian et al., 1999]) ‘Millennium Inhibitor’ was 70 ± –5%. Acceptable coefficients of variation (CV; standard deviation/mean × 100) for sample triplicates were <7%.
A library of 40 tetrapeptides based on the four C-terminal residues of Ang II (Ile-His-Pro-Phe/IHPF) was generated and screened for ACE2 binding at 100 μM in order to identify key residues of the C-terminus of Ang II involved in binding to the ACE2 active site. […] Several substitutions (Val, Tyr, Ala, Gly, Phe, Trp, Pro, His, Ile, and Leu) were made in order to further probe the highly hydrophobic and cyclic specificity of the C-terminus of Ang II. A β-napthalene amino acid (Nth) derivative was used as a highly hydrophobic non-natural cyclic residue substitute, and Arg and Lys were substituted for histidine at the second position from the N-terminus of the tetrapeptide to determine if positive charge or other structural or positional requirements were important.

[1] = read-out: ACE2 inhibition of terminally modified IHPF analogs, 100 μM (Table 3), peptide 100 μM, 50 uM QFS, 1 M NaCl, 100 mM Tris-Cl pH 6.5, 37 °C, 1 h
[2] = peptide 100 μM, 50 uM QFS MCA-APK(DNP)-OH, 1 M NaCl, 100 mM Tris-Cl pH 6.5, 37 °C, 1 h, fluorescence, triplicate, read-out: ACE2 inhibition of single substitution analogs of the C-terminal of AngII (Table 1)
[3] = read-out: ACE2 inhibition of terminally modified IHPF analogs, 10 μM (Table 3, in brackets), peptide 10 μM, 50 uM QFS, 1 M NaCl, 100 mM Tris-Cl pH 6.5, 37 °C, 1 h
[4] = pH 6.5, read-out: ACE2 inhibition of terminally modified IHPF analogs, 100 μM (Table 3)

ACE2, sequence (Q9BYF1 18-805, species assumed): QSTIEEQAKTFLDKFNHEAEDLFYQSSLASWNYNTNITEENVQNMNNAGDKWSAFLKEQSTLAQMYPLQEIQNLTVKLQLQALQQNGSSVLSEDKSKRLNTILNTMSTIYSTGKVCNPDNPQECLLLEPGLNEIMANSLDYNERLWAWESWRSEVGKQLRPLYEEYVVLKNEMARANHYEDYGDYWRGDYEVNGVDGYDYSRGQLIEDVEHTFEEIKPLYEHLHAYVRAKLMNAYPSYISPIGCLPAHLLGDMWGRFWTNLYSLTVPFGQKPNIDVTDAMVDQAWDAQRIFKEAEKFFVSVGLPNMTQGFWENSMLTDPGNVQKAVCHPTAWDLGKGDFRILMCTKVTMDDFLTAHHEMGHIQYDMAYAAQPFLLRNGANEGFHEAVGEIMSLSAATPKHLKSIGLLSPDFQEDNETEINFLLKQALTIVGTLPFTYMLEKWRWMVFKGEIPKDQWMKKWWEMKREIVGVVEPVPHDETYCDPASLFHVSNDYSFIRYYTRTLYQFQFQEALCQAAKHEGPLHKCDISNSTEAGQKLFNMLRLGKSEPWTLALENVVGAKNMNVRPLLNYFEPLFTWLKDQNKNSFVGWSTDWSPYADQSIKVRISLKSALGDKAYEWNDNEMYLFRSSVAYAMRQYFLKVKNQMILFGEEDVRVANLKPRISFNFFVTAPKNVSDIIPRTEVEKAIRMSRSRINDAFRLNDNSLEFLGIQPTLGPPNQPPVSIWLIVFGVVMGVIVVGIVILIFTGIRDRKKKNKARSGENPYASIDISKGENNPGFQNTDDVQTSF

inhibition at 100 µM [1] [%]	inhibition at 100 µM [2] [%]	Compound	other results
26		CC[C@H](C)[C@H](NC(C)=O)C(=O)N[C@@H](Cc1c[nH]cn1)C(=O)N1CCC[C@H]1C(=O)N[C@@H](Cc1ccccc1)C(N)=O [N-acetylated/C-amidated IHPF] (Ac-IHPF-NH2)	
8		CC(=O)N1CCC[C@H]1C(=O)N[C@@H](Cc1c[nH]cn1)C(=O)N[C@H](C(=O)N[C@@H](Cc1ccccc1)C(=O)O)C(C)C [N-acetylated PHVF] (Ac-PHVF-OH)	
	37	CC[C@H](C)[C@H](N)C(=O)N[C@@H](C)C(=O)N1CCC[C@H]1C(=O)N[C@@H](Cc1ccccc1)C(=O)O [IAPF] (H-IAPF-OH)	
	57	CC[C@H](C)[C@H](N)C(=O)N[C@@H](Cc1c[nH]cn1)C(=O)N1CCC[C@H]1C(=O)N[C@@H](Cc1c[nH]c2ccccc12)C(=O)O [IHPW] (H-IHPW-OH)	
66	62	CC[C@H](C)[C@H](N)C(=O)N[C@@H](Cc1c[nH]cn1)C(=O)N1CCC[C@H]1C(=O)N[C@@H](Cc1ccccc1)C(=O)O [IHPF, Ile-His-Pro-Phe, reference compound] (H-IHPF-OH)	inhibition at 10 µM [3]: 22%
	33	CC[C@H](C)[C@H](N)C(=O)N[C@@H](CCCNC(=N)N)C(=O)N1CCC[C@H]1C(=O)N[C@@H](Cc1ccccc1)C(=O)O [IRPF] (H-IRPF-OH)	
	48	CC[C@H](C)[C@H](N)C(=O)N[C@@H](Cc1c[nH]cn1)C(=O)N1CCC[C@H]1C(=O)N[C@@H](CC(C)C)C(=O)O [IHPL] (H-IHPL-OH)	
	54	CC[C@H](C)[C@H](N)C(=O)N[C@@H](Cc1c[nH]cn1)C(=O)N1CCC[C@H]1C(=O)N[C@@H](Cc1c[nH]cn1)C(=O)O [IHPH] (H-IHPH-OH)	

The next lines start with the compound.

Compound	inhibition at 100 µM [1] [%]	inhibition at 100 µM [2] [%]	other results
CC[C@H](C)[C@H](N)C(=O)N[C@@H](Cc1c[nH]cn1)C(=O)N1CCC[C@H]1C(=O)N[C@H](C(=O)O)[C@@H](C)CC [IHPI] (H-IHPI-OH)		36	
CC(C)[C@H](N)C(=O)N[C@@H](Cc1c[nH]cn1)C(=O)N[C@H](C(=O)N[C@@H](Cc1ccccc1)C(N)=O)C(C)C [C-amidated VHVF] (H-VHVF-NH2)	86		inhibition at 10 µM [3]: 40%
CC(C)[C@H](N)C(=O)N[C@@H](Cc1c[nH]cn1)C(=O)N[C@H](C(=O)N[C@@H](Cc1ccccc1)C(=O)O)C(C)C [VHVF] (H-VHVF-OH)	85		inhibition at 100 µM (peptide 100 μM, 50 uM QFS, 1 M NaCl, 100 mM Tris-Cl pH 6.5, 37 °C, 1 h, triplicate, read-out: Inhibition (%) of ACE2, single and multiple residue substitution analogs (Table 2)): 85%; inhibition at 10 µM [3]: 37%
CC(=O)N1CCC[C@H]1C(=O)N[C@@H](Cc1c[nH]cn1)C(=O)N1CCC[C@H]1C(=O)N[C@@H](Cc1ccccc1)C(=O)O [N-acetylated PHPF] (Ac-PHPF-OH)	57		
CC(=O)N1CCC[C@H]1C(=O)N[C@@H](Cc1c[nH]cn1)C(=O)N[C@H](C(=O)N[C@@H](Cc1ccccc1)C(N)=O)C(C)C [N-acetylated/C-amidated PHVF] (Ac-PHVF-NH2)	12		
N[C@@H](Cc1c[nH]cn1)C(=O)N[C@@H](Cc1c[nH]cn1)C(=O)N1CCC[C@H]1C(=O)N[C@@H](Cc1ccccc1)C(=O)O [HHPF] (H-HHPF-OH)		12	
CC[C@H](C)[C@H](N)C(=O)N[C@@H](Cc1c[nH]cn1)C(=O)N1CCC[C@H]1C(=O)N[C@H](C(=O)O)C(C)C [IHPV] (H-IHPV-OH)		18	
CC[C@H](C)[C@H](N)C(=O)N[C@@H](Cc1ccc(O)cc1)C(=O)N1CCC[C@H]1C(=O)N[C@@H](Cc1ccccc1)C(N)=O [C-amidated IYPF] (H-IYPF-NH2)			inhibition at 100 µM [4]: 8%
CC[C@H](C)[C@H](N)C(=O)N[C@@H](Cc1c[nH]cn1)C(=O)N[C@@H](Cc1ccc(O)cc1)C(=O)N[C@@H](Cc1ccccc1)C(=O)O [IHYF] (H-IHYF-OH)		1	
O=C(O)[C@H](Cc1ccccc1)NC(=O)[C@@H]1CCCN1C(=O)[C@H](Cc1ccc(O)cc1)NC(=O)[C@@H]1CCCN1 [PYPF] (H-PYPF-OH)			inhibition at 100 µM (1 h, pH 6.5, read-out: Inhibition (%) of ACE2, single and multiple residue substitution analogs (Table 2)): 93%; inhibition at 10 µM (pH 6.5, read-out: ACE2 inhibition of terminally modified IHPF analogs, 10 μM (Table 3, in brackets)): 50%; inhibition at 100 µM [4]: 93%
